{"source": "ChEMBL document CHEMBL1201862", "about": "“PubChem BioAssay data set” (2004)", "key": {"[1]": {"test_system": "INS1", "test": "beta cell apoptosis inhibitors, cytokine rescue, dose response, luminescence, retest (AID 449756);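 also: cell death triggered by IL-1 beta plus TNF-alpha plus IFN-gamma mixture; protective hits raise ATP signal compared with cytokine alone wells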", "assay_type": "functional, cell-based", "settings": "Rattus norvegicus"}, "[2]": {"target": "Cytochrome P450 3A4 (Homo sapiens, UniProt P08684)", "sequence (P08684 whole entry)": "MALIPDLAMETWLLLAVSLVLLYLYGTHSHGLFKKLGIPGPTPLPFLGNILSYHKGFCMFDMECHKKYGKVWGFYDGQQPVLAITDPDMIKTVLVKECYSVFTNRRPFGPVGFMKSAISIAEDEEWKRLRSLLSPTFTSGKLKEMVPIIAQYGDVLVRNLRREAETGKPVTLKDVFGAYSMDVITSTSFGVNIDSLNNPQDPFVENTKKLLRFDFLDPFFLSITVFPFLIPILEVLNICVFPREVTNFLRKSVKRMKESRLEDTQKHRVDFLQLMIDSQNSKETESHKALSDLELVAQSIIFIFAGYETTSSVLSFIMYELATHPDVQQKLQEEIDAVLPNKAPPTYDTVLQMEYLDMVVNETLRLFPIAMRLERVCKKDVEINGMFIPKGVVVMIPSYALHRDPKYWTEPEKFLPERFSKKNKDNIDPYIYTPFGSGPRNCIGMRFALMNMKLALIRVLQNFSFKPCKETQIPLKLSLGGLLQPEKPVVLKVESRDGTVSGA"}, "[3]": {"target": "Cytochrome P450 2C9 (Homo sapiens, UniProt P11712)", "sequence (P11712 whole entry)": "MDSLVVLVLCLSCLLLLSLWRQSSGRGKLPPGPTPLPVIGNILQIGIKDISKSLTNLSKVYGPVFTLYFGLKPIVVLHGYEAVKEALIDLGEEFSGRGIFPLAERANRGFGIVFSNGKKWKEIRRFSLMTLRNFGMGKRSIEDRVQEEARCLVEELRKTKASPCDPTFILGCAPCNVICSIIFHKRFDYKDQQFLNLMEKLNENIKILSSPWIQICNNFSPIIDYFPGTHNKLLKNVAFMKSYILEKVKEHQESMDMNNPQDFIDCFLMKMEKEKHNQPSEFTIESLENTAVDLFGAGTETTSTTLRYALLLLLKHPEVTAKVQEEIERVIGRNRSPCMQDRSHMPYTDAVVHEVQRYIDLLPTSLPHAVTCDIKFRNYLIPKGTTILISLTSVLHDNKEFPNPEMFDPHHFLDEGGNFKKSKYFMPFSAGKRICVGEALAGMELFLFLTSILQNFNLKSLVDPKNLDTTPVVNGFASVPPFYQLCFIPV"}, "[4]": {"target": "Cytochrome P450 2C19 (Homo sapiens, UniProt P33261)", "sequence (P33261 whole entry)": "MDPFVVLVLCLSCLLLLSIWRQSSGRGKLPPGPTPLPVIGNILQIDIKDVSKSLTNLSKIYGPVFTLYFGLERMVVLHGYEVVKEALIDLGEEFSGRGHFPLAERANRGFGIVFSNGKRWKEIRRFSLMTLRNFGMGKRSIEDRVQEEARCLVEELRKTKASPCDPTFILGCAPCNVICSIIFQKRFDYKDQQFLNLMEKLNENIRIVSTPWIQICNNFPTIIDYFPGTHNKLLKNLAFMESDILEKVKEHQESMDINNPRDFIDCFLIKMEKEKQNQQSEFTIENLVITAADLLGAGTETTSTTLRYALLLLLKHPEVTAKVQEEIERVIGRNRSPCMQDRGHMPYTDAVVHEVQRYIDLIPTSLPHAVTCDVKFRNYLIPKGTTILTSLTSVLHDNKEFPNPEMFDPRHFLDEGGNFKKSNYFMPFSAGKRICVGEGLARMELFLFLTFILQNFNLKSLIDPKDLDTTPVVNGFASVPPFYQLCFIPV", "test": "Cytochrome panel assay with activity outcomes. Panel member name: p450-cyp2c19 Compounds with AC50 equal or less than 10 uM are considered active", "assay_type": "functional", "settings": "read-out: AC50"}, "[5]": {"test_system": "Streptococcus sp. 'group A'", "test": "growth inhibition of control SK(-) GAS strain, dose response, counter-screen for streptokinase expression inhibitor project, luminescence, kanamycin, BacTiterGlo, confirmation (AID 1900)", "assay_type": "functional, organism-based"}, "[6]": {"target": "T1, Streptokinase A (Streptococcus pyogenes serotype M1, UniProt P10520)", "T1 sequence (P10520 whole entry)": "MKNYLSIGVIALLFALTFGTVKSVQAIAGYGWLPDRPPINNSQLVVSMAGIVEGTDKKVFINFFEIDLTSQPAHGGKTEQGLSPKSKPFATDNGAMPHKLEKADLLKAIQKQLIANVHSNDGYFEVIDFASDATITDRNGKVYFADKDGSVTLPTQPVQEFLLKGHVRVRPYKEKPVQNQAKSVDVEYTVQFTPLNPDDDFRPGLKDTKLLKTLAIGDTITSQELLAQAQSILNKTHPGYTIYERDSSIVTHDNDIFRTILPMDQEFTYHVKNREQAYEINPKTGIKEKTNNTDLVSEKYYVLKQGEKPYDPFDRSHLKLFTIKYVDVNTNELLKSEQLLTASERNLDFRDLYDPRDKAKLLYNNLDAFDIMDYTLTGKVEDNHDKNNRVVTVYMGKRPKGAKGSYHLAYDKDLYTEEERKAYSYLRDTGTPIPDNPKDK", "test": "S. pyogenes streptokinase expression inhibitors, potency, dose response, plasminogen activation absorbance, OD405 (AID 1914);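 also: secreted streptokinase activity via plasminogen activation per viability signal from cell pellet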", "assay_type": "functional, Streptococcus pyogenes M1 GAS"}, "[7]": {"test_system": "Streptococcus", "test": "Group A Streptococcus viability loss, dose response, counter-screen for streptokinase expression inhibitor project, luminescence, BacTiterGlo (AID 1915);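 also: potency for reduction of bacterial viability or growth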", "assay_type": "functional, organism-based"}, "[8]": {"target": "T2, Corticotropin-releasing factor receptor 2/Corticotropin-releasing factor-binding protein (Homo sapiens, UniProt P24387+Q13324)", "T2 sequence (Q13324 whole entry)": "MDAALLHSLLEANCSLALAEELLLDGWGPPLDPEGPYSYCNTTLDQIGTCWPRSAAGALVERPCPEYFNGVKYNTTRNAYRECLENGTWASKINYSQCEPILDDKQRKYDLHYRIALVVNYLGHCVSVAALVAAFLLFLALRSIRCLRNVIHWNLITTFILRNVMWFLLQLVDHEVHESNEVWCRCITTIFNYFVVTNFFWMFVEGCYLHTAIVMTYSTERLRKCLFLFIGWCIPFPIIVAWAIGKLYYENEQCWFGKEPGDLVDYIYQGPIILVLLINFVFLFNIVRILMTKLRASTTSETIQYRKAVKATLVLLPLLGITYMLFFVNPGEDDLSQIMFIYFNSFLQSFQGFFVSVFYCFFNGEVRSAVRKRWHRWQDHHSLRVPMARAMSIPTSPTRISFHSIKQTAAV", "T2 sequence (P24387 whole entry)": "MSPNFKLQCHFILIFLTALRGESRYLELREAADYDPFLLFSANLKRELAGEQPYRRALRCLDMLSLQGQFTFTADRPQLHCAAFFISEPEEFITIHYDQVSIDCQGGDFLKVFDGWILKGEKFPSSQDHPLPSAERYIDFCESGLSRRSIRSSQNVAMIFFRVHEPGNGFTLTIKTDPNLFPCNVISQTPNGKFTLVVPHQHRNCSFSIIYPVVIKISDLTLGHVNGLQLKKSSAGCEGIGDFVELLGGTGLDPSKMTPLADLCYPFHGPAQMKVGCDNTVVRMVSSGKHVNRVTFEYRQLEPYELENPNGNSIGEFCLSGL", "test": "activators of CRF receptor 2 with binding protein – uHTS hits, confirmation (AID 602473)", "assay_type": "functional", "settings": "read-out: EC50_Mean"}, "[9]": {"test": "inhibitors of firefly luciferase expression or activity, dose response, H4 neuroglioma cells, luminescence (AID 1990)", "assay_type": "functional, cell-based"}, "[10]": {"test": "Luminescence Cell-Based Dose Response HTS to Identify Inhibitors of 5'UTR Stem-Loop Driven Prion Protein mRNA Translation in H4 Neuroglioblastoma Cells. [Related pubchem assays: 1827 (Project Summary), 1813 (Primary HTS)]", "assay_type": "functional"}, "[11]": {"test": "inhibitors of SNCA 5'UTR-driven reporter translation, confirmation, H4 neuroglioma cells, luminescence (AID 1988)", "assay_type": "functional, cell-based"}, "[12]": {"test_system": "H9c2", "test": "cells", "assay_type": "functional, cell-based", "settings": "Rattus norvegicus, H9c2, Myocardium"}, "[13]": {"test": "NIH-3T3 fibroblast cytotoxicity, dose response, cytotoxicity control, cell-based, fluorescence, Alamar Blue, secondary assay (AID 2327);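 also: NIH-3T3 mouse fibroblasts cultured with fluconazole at 8 µg/mL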", "assay_type": "functional"}, "[14]": {"test": "C. albicans growth with fluconazole, confirmation, fluorescence, retest (AID 2467)", "assay_type": "functional, cell-based"}, "[15]": {"test": "P. falciparum Dd2 growth inhibitors, dose response, SYBR Green, cherry-picked samples (AID 1159567)", "assay_type": "functional, cell-based"}}, "note": "Active and inactive are the calls of the source.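 For IC50 in this document: confirmatory concentration-response retest of ultra-high-throughput screening hits for modulation of myocardial damage; cell death induced by hydrogen peroxide oxidative stress; compound pretreatment for 60 min then peroxide exposure for 2 h; potency is for protecting the cells against peroxide damage rather than for killing them.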", "data": [{"smiles": "Cc1ccc(NC(=O)c2cc(S(=O)(=O)NCCC3=CCCCC3)ccc2F)cc1", "values": [{"measurement": "AC50", "setting": "[1]", "value": "2.96 µM (active)"}]}, {"smiles": "O=C(NCc1cccnc1)C(=O)Nc1nc(C23CC4CC(CC(C4)C2)C3)cs1", "values": [{"measurement": "AC50", "setting": "[1]", "value": "35.3 µM (active)"}]}, {"smiles": "CCCCSc1nc(C)cc(C)c1S(=O)(=O)c1ccccc1C", "values": [{"measurement": "AC50", "setting": "[2]", "value": "28.2 µM (inconclusive)"}, {"measurement": "AC50", "setting": "[3]", "value": "10 µM (inconclusive)"}]}, {"smiles": "CCCn1c(=O)c2[nH]c(-c3ccccc3)nc2n(CCC)c1=O", "values": [{"measurement": "AC50", "setting": "[4]", "value": "10 µM (inconclusive)"}, {"measurement": "AC50", "setting": "[2]", "value": "2.51 µM (inconclusive)"}, {"measurement": "AC50", "setting": "[3]", "value": "1.58 µM (inconclusive)"}]}, {"smiles": "CC(C)n1c(=O)c2c(=O)cc(O)oc2c2ccccc21", "values": [{"measurement": "EC50", "setting": "[5]", "value": "27.8 µM (active)"}, {"measurement": "EC50", "setting": "[6]", "value": "> 150 µM (not active)"}, {"measurement": "EC50", "setting": "[7]", "value": "> 150 µM (not active)"}, {"measurement": "AC50", "setting": "[4]", "value": "10 µM (inconclusive)"}, {"measurement": "AC50", "setting": "[2]", "value": "2.51 µM (inconclusive)"}]}, {"smiles": "CCOC(=O)N1CCN(C(=O)c2cnc3ccc(S(=O)(=O)N(C)c4cccc(C)c4)cc3c2O)CC1", "values": [{"measurement": "EC50", "setting": "[8]", "value": "3.84 µM (active)"}]}, {"smiles": "COc1ccc(CC(=O)N/N=C(\\C)c2ccccn2)cc1", "values": [{"measurement": "EC50", "setting": "[9]", "value": "10.9 µM (active)"}, {"measurement": "EC50", "setting": "[10]", "value": "9.61 µM (active)"}, {"measurement": "EC50", "setting": "[11]", "value": "9.41 µM (active)"}, {"measurement": "IC50", "setting": "[12]", "value": "> 79 µM (inactive)"}]}, {"smiles": "CCN(CC)c1ccc(/C=N/NC(=S)NCc2ccccc2)c(O)c1", "values": [{"measurement": "EC50", "setting": "[5]", "value": "49.2 µM (active)"}, {"measurement": "EC50", "setting": "[6]", "value": "> 150 µM (not active)"}, {"measurement": "EC50", "setting": "[7]", "value": "> 150 µM (not active)"}, {"measurement": "AC50", "setting": "[1]", "value": "0.712 µM (active)"}]}, {"smiles": "CCOC(=O)c1s/c(=N\\C(=O)c2ccco2)n(C)c1C", "values": [{"measurement": "EC50", "setting": "[13]", "value": "> 150 µM (inactive)"}, {"measurement": "EC50", "setting": "[14]", "value": "9.57 µM (active)"}]}, {"smiles": "Brc1ccc(/C=C/C=N/Nc2nc3ccccc3s2)cc1", "values": [{"measurement": "EC50", "setting": "[13]", "value": "89.4 µM (inconclusive)"}, {"measurement": "AC50", "setting": "[3]", "value": "7.08 µM (inconclusive)"}]}, {"smiles": "CC(=O)NC/C(C)=N\\Nc1ccc([N+](=O)[O-])cc1", "values": [{"measurement": "EC50", "setting": "[13]", "value": "33.9 µM (active)"}]}, {"smiles": "CCS(=O)(=O)N1CCCCN2[C@H](CO)[C@H](c3ccc(-c4cccc(C#N)c4)cc3)[C@H]2C1", "values": [{"measurement": "AC50", "setting": "[15]", "value": "7.45 µM (active)"}]}, {"smiles": "Cc1noc(C)c1S(=O)(=O)N(C)C[C@H]1OCc2ccccc2-c2c(n(C)c3ccccc23)C(=O)N([C@@H](C)CO)C[C@H]1C", "values": [{"measurement": "AC50", "setting": "[15]", "value": "4.65 µM (active)"}]}, {"smiles": "C[C@H](CO)N1C[C@H](C)[C@H](CN(C)C(=O)NC2CCCCC2)OCc2ccccc2-c2c(n(C)c3ccccc23)C1=O", "values": [{"measurement": "AC50", "setting": "[15]", "value": "5.57 µM (active)"}]}, {"smiles": "COc1cccc(CNC(=O)c2cc3c(c(-c4cccc(-c5ccncc5)c4)n2)[C@H](CCO)N([S@@+]([O-])C(C)(C)C)C3)c1", "values": [{"measurement": "AC50", "setting": "[15]", "value": "4.29 µM (active)"}]}, {"smiles": "Oc1c(Cl)c(Cl)c(Cl)c(Cl)c1Cl", "note": "[PENTACHLOROPHENOL]", "values": [{"measurement": "EC50", "setting": "[13]", "value": "75.3 µM (inconclusive)"}, {"measurement": "EC50", "setting": "[14]", "value": "0.657 µM (active)"}]}]}
